Data as given in patent US6462023B1, “Cytostatic agents” (British Biotech Pharmaceuticals, Ltd., priority 1988, dated 2002).

Each compound was assayed on histiocytic lymphoma (U937) (assay: cell proliferation assay ([methyl-3H] thymidine incorporation), U937). Conditions: 6 μM; comparison compound.
Format: cell-based, human
Description: (§1) Two human cell lines namely a histiocytic lymphoma (U937) and a melanoma (RPMI-7951) were seeded into 30 mm^2 tissue culture wells, in the appropriate culture medium supplemented with 10% fetal calf serum at a density of 250 cells/mm^2. Six hours later the test compounds were added in the same culture medium to the cells to give a final concentration of 6 μM. Control wells contained cells supplemented with the same culture medium containing the equivalent amount of drug vehicle, which in this case was DMSO at a final concentration of 0.08%. After 72 hours in culture the cells were pulsed for 3 hours with [methyl-^3[H] Thymidine] (2 μCi/ml) and then harvested onto filter mats and DNA associated radioactivity counted. Results are expressed as percentage of control ^3[H] Thymidine incorporation (n=6±1 stdv).
Further examples were tested in the U937 assay described above at 6 μM and the results, expressed as percentage of control ^3[H] Thymidine incorporation (n=6±1 stdv), are set out in the following Table 2.
as §1, with “A” for “Two”, “line,” for “lines”, “(U937), was” for “(U937) and a melanoma (RPMI-7951) were”, “30MM^2” for “30 mm^2”, “cellS/MM^2.” for “cells/mm^2.”, “were” for “are”

Q: How did the “activity in the U937 assay relative to that observed with the vehicle alone” value turn out when `O=c1[nH]cc(F)c(=O)[nH]1` [5-fluorouracil, reference compound] was run?
A: The value was 50%.

Same assay, conditions: Homo sapiens, U-937; Table 1; final concentration 6 μM; 72 hours in culture, 3 hours pulse; n=6; read-out: U937: percentage of control 3[H] Thymidine incorporation

Q: With `COC(=O)[C@@H](Cc1ccccc1)NC(=O)[C@@H](CC(C)C)[C@@H](C)C(=O)NO` [Example 4, 3S-(2-Phenyl-1R-methylcarboxy-ethylcarbamoyl)-2R, 5-dimethylhexanohydroxamic acid, reference compound] as the compound, how does the activity at 6 µM read?
A: Its activity at 6 µM is 93%.

Same assay, conditions: Homo sapiens, U-937; Table 2; 6 μM; 72 hours in culture; n=6; read-out: U937: percentage of control 3[H] Thymidine incorporation

Q: For `C=CC[C@H](C(=O)NO)[C@@H](CC(C)C)C(=O)N[C@H](Cc1ccccc1)C(=O)OCCOC` [Example 13, 2S-(3S-Hydroxycarbamoyl-2R-isobutyl-hex-5-enoylamino)-3-phenylpropionic acid 2-methoxy-ethyl ester], which activity at 6 µM is on record?
A: The activity at 6 µM was 4%.

Q: How did the activity at 6 µM turn out when `CCC[C@H](C(=O)NO)[C@@H](CC(C)C)C(=O)N[C@@H](C(=O)OCCOC)C(C)(C)C` [Example 15, 2S-(3S-Hydroxycarbamoyl-2R-isobutyl-hexanoylamino)-3,3-dimethyl-butyric acid 2-methoxy-ethyl ester] was run?
A: Its activity at 6 µM is 19%.

Q: Which activity at 6 µM does the source give for `CCCCCC[C@H](CC(=O)NO)C(=O)N[C@@H](Cc1ccccc1)C(=O)OC(C)C` [Example 10, 2S-(2R-Hydroxycarbamoylmethyl-octanoylamino)-3-phenyl-propionic acid isopropyl ester] here?
A: Its activity at 6 µM is 1%.

Q: For `COCCOC(=O)[C@H](NC(=O)[C@H](CC(C)C)[C@H](C)C(=O)NO)C(C)(C)C` [Example 18, 2S-[2R-(1S-Hydroxycarbamoyl-ethyl)-4-methyl-pentanoylamino]-3,3-dimethyl-butyric acid 2-methoxy-ethyl ester], which activity at 6 µM is on record?
A: The activity at 6 µM was 54%.

Q: For `C=CC[C@H](C(=O)NO)[C@@H](CC(C)C)C(=O)N[C@@H](Cc1cccnc1)C(=O)OC1CCCC1` [Example 39, 2S-(3S-Hydroxycarbamoyl-2R-isobutyl-hex-5-enoylamino)-3-pyridin-3-yl-propionic acid cyclopentyl ester], which activity at 6 µM is on record?
A: The activity at 6 µM was 26%.

Q: How did the activity at 6 µM turn out when `CC(C)C[C@@H](C(=O)N[C@@H](Cc1ccccc1)C(=O)OC(C)C)[C@H](O)C(=O)NO` [Example 8, 2S-[2R-(S-Hydroxy-hydroxycarbamoyl-methyl)-4-methyl-pentanoylamine]-3-phenyl-propionic acid isopropyl ester] was run?
A: Its activity at 6 µM is 1%.

Q: Which activity at 6 µM does the source give for `C=CC[C@H](C(=O)NO)[C@@H](CC(C)C)C(=O)N[C@H](C(=O)OC1CCCC1)C(C)CC` (stereo partly drawn) [Example 12, 2S-(3S-Hydroxycarbamoyl-2R-isobutyl-hex-5-enoylamino)-3S-methyl-pentanoic acid cyclopentyl ester] here?
A: Its activity at 6 µM is 10%.

Q: `C=CC[C@H](C(=O)NO)[C@@H](CC(C)C)C(=O)N[C@@H](CC(C)C)C(=O)OC1CCCC1` [Example 27, 2S-(3S-Hydroxycarbamoyl-2R-isobutyl-hex-5-enoylamino)-4-methyl-pentanoic acid cyclopentyl ester] was tested. Which activity at 6 µM did it give?
A: The activity at 6 µM was 0%.

Q: Which activity at 6 µM does the source give for `C=CC[C@H](C(=O)NO)[C@@H](CC(C)C)C(=O)N[C@@H](Cc1ccccc1)C(=O)OC(C)(C)C` [Example 6, 2S-(3S-Hydroxycarbamoyl-2R-isobutyl-hex-5-enoylamino)-3-phenyilpropionic acid tert-butyl ester] here?
A: The activity at 6 µM was 18%.

Q: Which activity at 6 µM does the source give for `C=CC[C@H](C(=O)NO)[C@@H](CC(C)C)C(=O)N[C@H](C(=O)OC(C)C)C(C)(C)C` [Example 22, 2S-(3S-Hydroxycarbamoyl-2R-isobutyl-hex-5-enoylamino)-3,3-dimethyl-butyric acid isopropyl ester] here?
A: The activity at 6 µM was 51%.

Q: With `CC(C)C[C@@H](C(=O)N[C@@H](Cc1ccccc1)C(=O)OC1CCCC1)[C@@H](C(=O)NO)C1CCCC1` [Example 37, 2S-[2R-(1S-Cyclopentyl-hydroxycarbamoyl-methyl)-4-methyl-pentanoylamino]-3-phenyl-propionic acid cyclopentyl ester] as the compound, how does the activity at 6 µM read?
A: The activity at 6 µM was 0%.

Q: For `C=CC[C@H](C(=O)NO)[C@@H](CC(C)C)C(=O)N[C@@H](Cc1ccccc1)C(=O)O[C@@H](C)CCC` [Example 31, 2S-(3S-Hydroxycarbamoyl-2R-isobutyl-hex-5-enoylamino)-3-phenylpropionic acid 1S-methyl-butyl ester], which activity at 6 µM is on record?
A: Its activity at 6 µM is 7%.

Q: `CC(C)C[C@@H](C(=O)N[C@@H](Cc1ccccc1)C(=O)OC(C)C)[C@H](CSc1cccs1)C(=O)NO` [Example 17, 2S-{2R-[1S-Hydroxycarbamoyl-2-(thiophen-2-ylsulphanyl)-ethyl]-4-methyl-pentanoylamino}-3-phenyl-propionic acid isopropyl ester] was tested. Which activity at 6 µM did it give?
A: Its activity at 6 µM is 0%.

Q: Which activity at 6 µM does the source give for `O=C(OC1CCCC1)[C@H](Cc1ccccc1)NC(=O)[C@H](CC#Cc1ccccc1Cl)[C@H](O)C(=O)NO` [Example 42, 2S-[5-(2-Chlorophenyl)-2R-(1S-hydroxy-hydroxycarbamoyl-methyl)-pent-4-ynoylamino]-3-phenylpropionic acid cyclopentyl ester] here?
A: Its activity at 6 µM is 0%.

Q: Which activity at 6 µM does the source give for `C=CC[C@H](C(=O)NO)[C@@H](CC(C)C)C(=O)N[C@@H](Cc1ccccc1)C(=O)OC1CCN(C)CC1` [Example 29, 2S-(3S-Hydroxycarbamoyl-2R-isobutyl-hex-5-enoylamino)-3-phenylpropionic acid 1-methyl-piperidin-4-yl ester] here?
A: The activity at 6 µM was 49%.

Q: Which activity at 6 µM does the source give for `C#CC[C@@H](C(=O)N[C@@H](Cc1ccccc1)C(=O)OC1CCCC1)[C@H](O)C(=O)NO` [Example 38, 2S-[2R-(1S-Hydroxy-hydroxycarbamoyl-methyl)-pent-4-ynoylamino]-3-phenylpropionic acid cyclopentyl ester] here?
A: The activity at 6 µM was 37%.

Q: With `CCC[C@H](C(=O)NO)[C@@H](CC(C)C)C(=O)N[C@@H](Cc1ccccc1)C(=O)OC(C)C` [Example 21, 2S-(3S-Hydroxycarbamoyl-2R-isobutyl-hexanoylamino)-3-phenylpropionic acid isopropyl ester] as the compound, how does the activity at 6 µM read?
A: The activity at 6 µM was 1%.

Q: For `C=CC[C@H](C(=O)NO)[C@@H](CC(C)C)C(=O)N[C@H](Cc1ccccc1)C(=O)OC(C)C` [Example 23, 2R-(3S-Hydroxycarbamoyl-2R-isobutyl-hex-5-enoylamino)-3-phenylpropionic acid isopropyl ester], which activity at 6 µM is on record?
A: Its activity at 6 µM is 36%.

Q: With `C=CC[C@H](C(=O)NO)[C@@H](CC(C)C)C(=O)N[C@@H](Cc1ccccc1)C(=O)OCc1ccccc1` [Example 26, 2S-(3S-Hydroxycarbamoyl-2R-isobutyl-hex-5-enoylamino)-3-phenylpropionic acid benzyl ester] as the compound, how does the activity at 6 µM read?
A: The activity at 6 µM was 0%.

Q: Which activity at 6 µM does the source give for `CO[C@H](C(=O)NO)[C@@H](CC(C)C)C(=O)N[C@@H](Cc1ccccc1)C(=O)OC(C)C` [Example 16, 2S-[2R-(S-Hydroxycarbamoyl-methoxy-methyl)-4-methyl-pentanoylamino]-3-phenyl-propionic acid isopropyl ester] here?
A: The activity at 6 µM was 2%.

Q: Which activity at 6 µM does the source give for `C=CC[C@H](C(=O)NO)[C@@H](CC(C)C)C(=O)N[C@@H](Cc1ccccc1)C(=O)OC1CCCC1` [Example 20, 2S-(3S-Hydroxycarbamoyl-2R-isobutyl-hex-5-enoylamino)-3-phenylpropionic acid cyclopentyl ester] here?
A: The activity at 6 µM was 0%.

Q: Which activity at 6 µM does the source give for `CC(C)C[C@H](CC(=O)NO)C(=O)N[C@@H](Cc1ccccc1)C(=O)OC(C)C` [Example 7, 2S-(2R-Hydroxycarbamoylmethyl-4-methyl-pentanoylamino)-3-phenyl-propionic acid isopropyl ester] here?
A: Its activity at 6 µM is 0%.

Q: For `C=CC[C@H](C(=O)NO)[C@@H](CC(C)C)C(=O)N[C@@H](COC(C)(C)C)C(=O)OC1CCCC1` [Example 40, 3-tert-Butoxy-2S-(3S-hydroxcarbamoyl-2R-isobutyl-hex-5-enoylamino)-propionic acid cyclopentyl ester], which activity at 6 µM is on record?
A: Its activity at 6 µM is 0%.

Q: With `C=CC[C@H](C(=O)NO)[C@@H](CC(C)C)C(=O)N(C)[C@@H](Cc1ccccc1)C(=O)OC(C)C` [Example 25, 2S-{(3S-Hydroxycarbamoyl-2R-isobutyl-hex-5-enoyl)-methyl-amino)-3-phenylpropionic acid isopropyl ester] as the compound, how does the activity at 6 µM read?
A: Its activity at 6 µM is 34%.

Q: How did the activity at 6 µM turn out when `C=CC[C@H](C(=O)NO)[C@@H](CC(C)C)C(=O)N[C@@H](Cc1ccccc1)C(=O)OC1CCOC1` (stereo partly drawn) [Example 35, 2S-(3S-Hydroxycarbamoyl-2R-isobutyl-hex-5-enoylamino)-3-phenylpropionic acid tetrahydro-furan-3(R, S)-yl ester] was run?
A: Its activity at 6 µM is 14%.

Q: With `C=CC[C@H](C(=O)NO)[C@@H](CC(C)C)C(=O)N[C@@H](Cc1ccccc1)C(=O)OC1CCCCC1` [Example 32, 2S-(3S-Hydroxycarbamoyl-2R-isobutyl-hex-5-enoylamino)-3-phenylpropionic acid cyclohexyl ester] as the compound, how does the activity at 6 µM read?
A: Its activity at 6 µM is 0%.
